Assay results as given in US11000033B2, “Ketone or oxime compound, and herbicide” (NISSAN CHEMICAL CORPORATION, priority 2014, dated 2021).

Columns and labels:
Format in all cases: in vivo
[1] = test system: Echinochloa oryzacola Vasing.; assay: Test Example 1: herbicidal activity, application before weed generation in submerged conditions (symbol A); details: application herbicide amount 320 g/ha
Outline: (§1)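 Application before weed emergence: an aqueous dilution of the emulsion formulation was poured onto the surface of 4 cm-deep floodwater on the day of sowing. Effect was judged after 3 weeks (greenhouse, 25–30 °C).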

[2] = test system: Scirpus juncoides; assay: Test Example 1: herbicidal activity, application before weed generation in submerged conditions (symbol B); details: application herbicide amount 320 g/ha
Outline: as §1

[3] = test system: Echinochloa crus-galli var. crus-galli; assay: Test Example 3: herbicidal effect by foliage application, Wagner pot (symbol H); details: application herbicide amount 320 g/ha
Outline: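 Post-emergence, paddy-type test: seedlings 14 d old in shallow-flooded (0.1–0.5 cm) alluvial soil, 25–30 °C greenhouse. Emulsion diluted to target rate, sprayed on leaves. Read-out: visual effect on each species at 3 weeks, per set criteria.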

[4] = test system: Setaria viridis; assay: Test Example 4: herbicidal effect by soil treatment (symbol G); details: application herbicide amount 320 g/ha
Outline: (§2)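 Seeds were sown in sterilized diluvial soil, covered with about 1.5 cm of soil, and the soil surface was sprayed with a water-diluted emulsion of the compound at a predetermined rate. Plants grew in a greenhouse at 25° C. to 30° C.; effects were scored visually 3 weeks after application.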

[5] = test system: Alopecurus myosuroides; assay: Test Example 4: herbicidal effect by soil treatment (symbol J); details: application herbicide amount 320 g/ha
Outline: as §2

[6] = test system: Galium spurium; assay: Test Example 4: herbicidal effect by soil treatment (symbol Q); details: application herbicide amount 320 g/ha
Outline: as §2

[7] = test system: wheat; assay: Test Example 4: effect on crop by soil treatment (symbol e); details: application herbicide amount 320 g/ha
Outline: (§3)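 Plants are raised in a greenhouse (25° C. to 30° C.) from spot-sown seed, which sits under about 1.5 cm of sterilized diluvial soil in a box shared with weed species.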

[8] = test system: rapeseed; assay: Test Example 4: effect on crop by soil treatment (symbol g); details: application herbicide amount 320 g/ha
Outline: as §3

[9] = test system: Digitaria ciliaris; assay: Test Example 5: herbicidal effect by foliage application, plastic box (symbol F); details: 320 g/ha, 3 weeks after application
Outline: (§4)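 Leaf-applied emulsion, water-diluted to a preset herbicide dose, on two-week-old seedlings raised in a 25° C. to 30° C. greenhouse; injury rated at 3 weeks using earlier criteria.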

[10] = test system: Alopecurus myosuroides; assay: Test Example 5: herbicidal effect by foliage application, plastic box (symbol J); details: 320 g/ha, 3 weeks after application
Outline: as §4

[11] = test system: Apera spica-venti; assay: Test Example 5: herbicidal effect by foliage application, plastic box (symbol L); details: 320 g/ha, 3 weeks after application
Outline: as §4

[12] = test system: Abutilon theophrasti; assay: Test Example 5: herbicidal effect by foliage application, plastic box (symbol M); details: 320 g/ha, 3 weeks after application
Outline: as §4

[13] = test system: Amaranthus retroflexus; assay: Test Example 5: herbicidal effect by foliage application, plastic box (symbol N); details: 320 g/ha, 3 weeks after application
Outline: as §4

[14] = test system: Stellaria media; assay: Test Example 5: herbicidal effect by foliage application, plastic box (symbol P); details: 320 g/ha, 3 weeks after application
Outline: as §4

[15] = test system: Galium spurium; assay: Test Example 5: herbicidal effect by foliage application, plastic box (symbol Q); details: 320 g/ha, 3 weeks after application
Outline: as §4

[16] = test system: beet; assay: Test Example 5: effect on crop by foliage application, plastic box (symbol f); details: 320 g/ha, 3 weeks after application
Outline: (§5)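 Box culture: sterile diluvial soil, seeds spot-sown, ~1.5 cm cover, raised under glass at 25–30° C.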

[17] = test system: rapeseed; assay: Test Example 5: effect on crop by foliage application, plastic box (symbol g); details: 320 g/ha, 3 weeks after application
Outline: as §5

For `CON=C(C)CC1CC(O)=C(c2c(F)cc(-c3ccccc3)cc2OC)C1=O` (centres unmarked) [6-107], the “Herbicidal effect grade, A: Echinochloa oryzacola Vasing.” value [1] was 5 (Herbicidal ratio of 90% or more (almost completely withered)), the “Herbicidal effect grade, B: Scirpus juncoides” value (“Herbicidal effect grade, B” for short) [2] was 5 (Herbicidal ratio of 90% or more (almost completely withered)) and the “herbicidal effect on H (Echinochloa crus-galli var. crus-galli), grade 0-5” value (“herbicidal effect on H” for short) [3] was 5 (Herbicidal ratio of 90% or more (almost completely withered)). For the same molecule, the “Herbicidal effect grade, G: Setaria viridis” value (from here on “Herbicidal effect grade, G”) [4] was 5 (Herbicidal ratio of 90% or more (almost completely withered)), the “Herbicidal effect grade, J: Alopecurus myosuroides” value (shortened to “Herbicidal effect grade, J”) [5] was 5 (Herbicidal ratio of 90% or more (almost completely withered)) and the “Herbicidal effect grade, Q: Galium spurium” value (shortened to “Herbicidal effect grade, Q”) [6] was 2 (Herbicidal ratio of 20% or higher and lower than 40%). The “Effect on crop grade, e: wheat” value [7] was 4 (Herbicidal ratio of 70% or higher and lower than 90%), the “Effect on crop grade, g: rapeseed” value [8] was 4 (Herbicidal ratio of 70% or higher and lower than 90%) and the “F: Digitaria ciliaris, herbicidal effect (criteria of Test Example 1)” value (shortened to “F: Digitaria ciliaris, herbicidal effect”) [9] was 5 (Herbicidal ratio of 90% or more (almost completely withered)). The “J: Alopecurus myosuroides, herbicidal effect (criteria of Test Example 1)” value [10] was 5 (Herbicidal ratio of 90% or more (almost completely withered)), the “L: Apera spica-venti, herbicidal effect (criteria of Test Example 1)” value (from here on “L: Apera spica-venti, herbicidal effect”) [11] was 5 (Herbicidal ratio of 90% or more (almost completely withered)) and the “M: Abutilon theophrasti, herbicidal effect (criteria of Test Example 1)” value (“M: Abutilon theophrasti” below) [12] was 3 (Herbicidal ratio of 40% or higher and lower than 70%). For the same molecule, the “N: Amaranthus retroflexus, herbicidal effect (criteria of Test Example 1)” value (from here on “N: Amaranthus retroflexus”) [13] was 2 (Herbicidal ratio of 20% or higher and lower than 40%), the “P: Stellaria media, herbicidal effect (criteria of Test Example 1)” value (“P: Stellaria media, herbicidal effect” for short) [14] was 2 (Herbicidal ratio of 20% or higher and lower than 40%) and the “Q: Galium spurium, herbicidal effect (criteria of Test Example 1)” value (from here on “Q: Galium spurium, herbicidal effect”) [15] was 5 (Herbicidal ratio of 90% or more (almost completely withered)). The “f: beet, effect on crop (criteria of Test Example 1)” value (“f: beet, effect on crop” for short) [16] was 2 (Herbicidal ratio of 20% or higher and lower than 40%) and the “g: rapeseed, effect on crop (criteria of Test Example 1)” value (“g: rapeseed, effect on crop” below) [17] was 4 (Herbicidal ratio of 70% or higher and lower than 90%).
With `CON=C(C)CC1CC(OC(=O)N2CCCCC2)=C(c2c(C)cc(C)cc2OC)C1=O` (centres unmarked) [6-111] the “Herbicidal effect grade, A: Echinochloa oryzacola Vasing.” value [1] was 5 (Herbicidal ratio of 90% or more (almost completely withered)), the “Herbicidal effect grade, B” value [2] was 5 (Herbicidal ratio of 90% or more (almost completely withered)) and the “herbicidal effect on H” value [3] was 5 (Herbicidal ratio of 90% or more (almost completely withered)). The “Herbicidal effect grade, G” value [4] was 0 (Herbicidal ratio of 5% or lower (almost no effect)), the “Herbicidal effect grade, J” value [5] was 5 (Herbicidal ratio of 90% or more (almost completely withered)) and the “Herbicidal effect grade, Q” value [6] was 0 (Herbicidal ratio of 5% or lower (almost no effect)). The “Effect on crop grade, e: wheat” value [7] was 0 (Herbicidal ratio of 5% or lower (almost no effect)), the “Effect on crop grade, g: rapeseed” value [8] was 0 (Herbicidal ratio of 5% or lower (almost no effect)) and the “F: Digitaria ciliaris, herbicidal effect” value [9] was 5 (Herbicidal ratio of 90% or more (almost completely withered)). The “J: Alopecurus myosuroides, herbicidal effect (criteria of Test Example 1)” value [10] was 5 (Herbicidal ratio of 90% or more (almost completely withered)), the “L: Apera spica-venti, herbicidal effect” value [11] was 5 (Herbicidal ratio of 90% or more (almost completely withered)) and the “M: Abutilon theophrasti” value [12] was 2 (Herbicidal ratio of 20% or higher and lower than 40%). The “N: Amaranthus retroflexus” value [13] was 2 (Herbicidal ratio of 20% or higher and lower than 40%), the “P: Stellaria media, herbicidal effect” value [14] was 1 (Herbicidal ratio of 5% or higher and lower than 20%) and the “Q: Galium spurium, herbicidal effect” value [15] was 0 (Herbicidal ratio of 5% or lower (almost no effect)). For the same molecule, the “f: beet, effect on crop” value [16] was 0 (Herbicidal ratio of 5% or lower (almost no effect)) and the “g: rapeseed, effect on crop” value [17] was 4 (Herbicidal ratio of 70% or higher and lower than 90%).
`CON=C(C)CC1CC(O)=C(c2c(F)cc(C)cc2OC)C1=O` (centres unmarked) [6-108] was tested, and the “Herbicidal effect grade, A: Echinochloa oryzacola Vasing.” value [1] was 4 (Herbicidal ratio of 70% or higher and lower than 90%), the “Herbicidal effect grade, B” value [2] was 3 (Herbicidal ratio of 40% or higher and lower than 70%) and the “herbicidal effect on H” value [3] was 5 (Herbicidal ratio of 90% or more (almost completely withered)). For the same molecule, the “Herbicidal effect grade, G” value [4] was 4 (Herbicidal ratio of 70% or higher and lower than 90%), the “Herbicidal effect grade, J” value [5] was 3 (Herbicidal ratio of 40% or higher and lower than 70%) and the “Herbicidal effect grade, Q” value [6] was 3 (Herbicidal ratio of 40% or higher and lower than 70%). For the same molecule, the “Effect on crop grade, e: wheat” value [7] was 3 (Herbicidal ratio of 40% or higher and lower than 70%), the “Effect on crop grade, g: rapeseed” value [8] was 4 (Herbicidal ratio of 70% or higher and lower than 90%) and the “F: Digitaria ciliaris, herbicidal effect” value [9] was 5 (Herbicidal ratio of 90% or more (almost completely withered)). The “J: Alopecurus myosuroides, herbicidal effect (criteria of Test Example 1)” value [10] was 5 (Herbicidal ratio of 90% or more (almost completely withered)), the “L: Apera spica-venti, herbicidal effect” value [11] was 5 (Herbicidal ratio of 90% or more (almost completely withered)) and the “M: Abutilon theophrasti” value [12] was 5 (Herbicidal ratio of 90% or more (almost completely withered)). For the same molecule, the “N: Amaranthus retroflexus” value [13] was 5 (Herbicidal ratio of 90% or more (almost completely withered)), the “P: Stellaria media, herbicidal effect” value [14] was 3 (Herbicidal ratio of 40% or higher and lower than 70%) and the “Q: Galium spurium, herbicidal effect” value [15] was 3 (Herbicidal ratio of 40% or higher and lower than 70%). For the same molecule, the “f: beet, effect on crop” value [16] was 0 (Herbicidal ratio of 5% or lower (almost no effect)) and the “g: rapeseed, effect on crop” value [17] was 5 (Herbicidal ratio of 90% or more (almost completely withered)).
With `CON=C(C)CC1CC(OC(=O)N2CCCC2)=C(c2c(C)cc(C)cc2OC)C1=O` (centres unmarked) [6-110] the “Herbicidal effect grade, A: Echinochloa oryzacola Vasing.” value [1] was 5 (Herbicidal ratio of 90% or more (almost completely withered)), the “Herbicidal effect grade, B” value [2] was 3 (Herbicidal ratio of 40% or higher and lower than 70%) and the “herbicidal effect on H” value [3] was 5 (Herbicidal ratio of 90% or more (almost completely withered)). For the same molecule, the “Herbicidal effect grade, G” value [4] was 0 (Herbicidal ratio of 5% or lower (almost no effect)), the “Herbicidal effect grade, J” value [5] was 3 (Herbicidal ratio of 40% or higher and lower than 70%) and the “Herbicidal effect grade, Q” value [6] was 0 (Herbicidal ratio of 5% or lower (almost no effect)). For the same molecule, the “Effect on crop grade, e: wheat” value [7] was 0 (Herbicidal ratio of 5% or lower (almost no effect)), the “Effect on crop grade, g: rapeseed” value [8] was 0 (Herbicidal ratio of 5% or lower (almost no effect)) and the “F: Digitaria ciliaris, herbicidal effect” value [9] was 5 (Herbicidal ratio of 90% or more (almost completely withered)). The “J: Alopecurus myosuroides, herbicidal effect (criteria of Test Example 1)” value [10] was 5 (Herbicidal ratio of 90% or more (almost completely withered)), the “L: Apera spica-venti, herbicidal effect” value [11] was 5 (Herbicidal ratio of 90% or more (almost completely withered)) and the “M: Abutilon theophrasti” value [12] was 4 (Herbicidal ratio of 70% or higher and lower than 90%). The “N: Amaranthus retroflexus” value [13] was 0 (Herbicidal ratio of 5% or lower (almost no effect)), the “P: Stellaria media, herbicidal effect” value [14] was 1 (Herbicidal ratio of 5% or higher and lower than 20%) and the “Q: Galium spurium, herbicidal effect” value [15] was 3 (Herbicidal ratio of 40% or higher and lower than 70%). The “f: beet, effect on crop” value [16] was 0 (Herbicidal ratio of 5% or lower (almost no effect)) and the “g: rapeseed, effect on crop” value [17] was 4 (Herbicidal ratio of 70% or higher and lower than 90%).
